In ChEMBL document CHEMBL1136418, “Synthesis and gamma-secretase activity of APP substrate-based hydroxyethylene dipeptide isosteres” (Bioorg Med Chem Lett, 2003) one finds ED50 and IC50 data, which are given here for ten molecules.

The target in assay [1] is T1, Gamma-secretase subunit PEN-2 (Homo sapiens, UniProt Q9NZ42). Nature of the assay: Compound required for inhibition of gamma-secretase-mediated formation of Abeta1-42 polypeptide. The format is functional.
Assay [2] deals with T1, Gamma-secretase subunit PEN-2. Nature of the assay: Compound required for inhibition of gamma-secretase-mediated formation of Abeta1-40 polypeptide. The assay is classed as functional.
Assay [3] has the same target. Briefly: Inhibitory concentration against gamma-secretase was determined.

T1 sequence (Q9NZ42 whole entry): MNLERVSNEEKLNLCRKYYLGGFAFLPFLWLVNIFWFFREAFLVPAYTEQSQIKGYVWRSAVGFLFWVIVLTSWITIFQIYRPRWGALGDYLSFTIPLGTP

Consider `CC(C)C[C@H](NC(=O)[C@H](CN)C[C@@H](O)[C@H](Cc1ccccc1)NC(=O)OC(C)(C)C)C(=O)N[C@@H](Cc1ccccc1)C(N)=O`, for which the ED50 in assay [1] and in assay [2] was over 10 µM in each case.

Turning to `CC(C)C[C@H](NC(=O)[C@H](Cc1ccccc1)C[C@@H](O)[C@H](Cc1ccccc1)NC(=O)OC(C)(C)C)C(=O)N[C@@H](Cc1ccccc1)C(N)=O`, the ED50 in assay [1] is 0.014 µM; in assay [2], 0.036 µM. This molecule also returned an IC50 in assay [3] of 0.3 µM.

For the molecule `CC[C@H](C)[C@H](NC(=O)[C@@H](NC(=O)[C@H](Cc1ccccc1)C[C@@H](O)[C@H](Cc1ccccc1)NC(=O)OC(C)(C)C)C(C)C)C(N)=O`, the ED50 is 35 µM in assay [1] and 32 µM in assay [2].

Take `CCC(C)[C@H](NC(=O)[C@@H](NC(=O)[C@@H](C[C@@H](O[Si](C)(C)C(C)(C)C)[C@H](C)NC(=O)OC(C)(C)C)[C@@H](C)O[Si](C)(C)C(C)(C)C)C(C)C)C(N)=O` (stereo partly specified): the ED50 in assay [1] and in assay [2] was over 10 µM each time.

For `CCC(C)[C@H](NC(=O)[C@@H](NC(=O)[C@H](C[C@@H](O[Si](C)(C)C(C)(C)C)[C@H](C)NC(=O)OC(C)(C)C)C(C)O[Si](C)(C)C(C)(C)C)C(C)C)C(N)=O` (stereo partly specified), the ED50 in assay [1] and in assay [2] was over 10 µM each time.

As to `CCC(C)[C@H](NC(=O)[C@@H](NC(=O)[C@@H](C[C@@H](O[Si](C)(C)C(C)(C)C)[C@H](C)NC(=O)OC(C)(C)C)[C@H](C)O[Si](C)(C)C(C)(C)C)C(C)C)C(N)=O` (stereo partly specified), the ED50 in assay [1] and in assay [2] was over 10 µM in each case.

Consider `CCC(C)C(C[C@@H](O[Si](C)(C)C(C)(C)C)[C@@H](NC(=O)OC(C)(C)C)C(C)C)C(=O)N[C@@H](C)C(=O)N[C@H](C(N)=O)C(C)O` (stereo partly specified), for which the ED50 in assay [1] and in assay [2] was over 10 µM throughout.

Regarding `CC(C)C[C@H](NC(=O)/C(=C/C[C@H](Cc1ccccc1)NC(=O)OC(C)(C)C)Cc1ccccc1)C(=O)N[C@@H](Cc1ccccc1)C(N)=O`, the ED50 in assay [1] and in assay [2] was over 10 µM in each case.

For the molecule `CC(NC(=O)[C@H](Cc1ccccc1)C[C@@H](O)[C@H](Cc1ccccc1)NC(=O)OC(C)(C)C)C(=O)N[C@H](C(N)=O)[C@H](C)O` (single isomer, unassigned), the results for the ED50 in assay [1] and in assay [2] were 230 µM and 732 µM, respectively.

As for `CC(C)C[C@H](NC(=O)C(CC[C@H](Cc1ccccc1)NC(=O)OC(C)(C)C)Cc1ccccc1)C(=O)N[C@@H](Cc1ccccc1)C(N)=O` (stereo partly specified), the ED50 in assay [1] and in assay [2] was over 10 µM each time.

A word on the IC50: it is the point on the concentration scale where inhibition reaches its midpoint.
